Several values for one entry are separate records, joined by “and”; a condition that tells them apart may be missing. Equal values may be shown once.
experiment: UV absorption (λmax) of the biphenyl compounds as UV filters; type: physicochemical; details: in DMSO

| Compound | λmax (DMSO) [nm] |
| --- | --- |
| O=C1NC(=O)C(=Cc2ccc(-c3ccc(C=C4C(=O)NC(=O)NC4=O)cc3)cc2)C(=O)N1 [Example 15] | 396 |

same assay, conditions: in DMSO, at λmax 396 nm

| Compound | E (1%, 1 cm) |
| --- | --- |
| O=C1NC(=O)C(=Cc2ccc(-c3ccc(C=C4C(=O)NC(=O)NC4=O)cc3)cc2)C(=O)N1 [Example 15] | 1134 |

same assay, conditions: in dioxane

| Compound | λmax (dioxane) |
| --- | --- |
| O=C1/C(=C/c2ccc(-c3ccc(/C=C4/C(=O)C5CCN4CC5)cc3)cc2)N2CCC1CC2 [Example 13] | 235 nm and 350 nm |

experiment: as above; type: physicochemical; details: measured in acetonitrile 98/water 2
Text: By way of example, the following Table lists a number of biphenyl compounds according to the invention together with their λmax values (measured in acetonitrile 98/water 2).

| Compound | λmax [nm] |
| --- | --- |
| O=C1/C(=C/c2ccc(-c3ccc(/C=C4\CCc5ccccc5C4=O)cc3)cc2)CCc2ccccc21 [Example 2] | 351 |
| CC(C)(C)C1CCC(=O)/C(=C/c2ccc(-c3ccc(/C=C4\CC(C(C)(C)C)CCC4=O)cc3)cc2)C1 (centres unmarked) [Example 1] | 357 |
| O=C1CCCCCC/C1=C\c1ccc(-c2ccc(/C=C3\CCCCCCC3=O)cc2)cc1 [Example 7] | 315 |
| COc1ccc2c(c1)CC/C(=C\c1ccc(-c3ccc(/C=C4\CCc5cc(OC)ccc5C4=O)cc3)cc1)C2=O [Example 3] | 351 |
| CC(=O)/C(=C\c1ccc(-c2ccc(/C=C(\C(C)=O)C(=O)OC(C)(C)C)cc2)cc1)C(=O)OC(C)(C)C [Example 11] | 345 |
| O=C1CCCCC/C1=C\c1ccc(-c2ccc(/C=C3\CCCCCC3=O)cc2)cc1 [Example 6] | 337 |
| O=C1OCCCC/C1=C\c1ccc(-c2ccc(/C=C3\CCCCOC3=O)cc2)cc1 [Example 10] | 361 |
| CCCCCCC1CC/C(=C\c2ccc(-c3ccc(/C=C4\CCC(CCCCCC)C4=O)cc3)cc2)C1=O (centres unmarked) [Example 4] | 282 |
| O=C(/C(=C/c1ccc(-c2ccc(/C=C(/C(=O)c3ccccc3)c3ccccc3)cc2)cc1)c1ccccc1)c1ccccc1 [Example 9] | 326 |
| O=C(/C=C/c1ccc(-c2ccc(/C=C/C(=O)c3ccc(F)cc3)cc2)cc1)c1ccc(F)cc1 [Example 5] | 358 |
| C/C(=C\c1ccc(-c2ccc(/C=C(\C)C(=O)c3ccccc3)cc2)cc1)C(=O)c1ccccc1 [Example 8] | 326 |

From patent publication US7432400B2, “Biphenylene compounds” (Ciba Specialty Chemicals Corp., priority 2001, dated 2008)
